The record followed here is patent US7598237B2 (Wyeth, priority 2004, dated 2009).

The target of series [1] is T1, progesterone receptor (PR) (Homo sapiens, UniProt P06401).
T1 construct: effect on alkaline phosphatase activity in T47D cells; endogenous in cells; host or cells: T47D cells
T1 sequence (P06401 1-933): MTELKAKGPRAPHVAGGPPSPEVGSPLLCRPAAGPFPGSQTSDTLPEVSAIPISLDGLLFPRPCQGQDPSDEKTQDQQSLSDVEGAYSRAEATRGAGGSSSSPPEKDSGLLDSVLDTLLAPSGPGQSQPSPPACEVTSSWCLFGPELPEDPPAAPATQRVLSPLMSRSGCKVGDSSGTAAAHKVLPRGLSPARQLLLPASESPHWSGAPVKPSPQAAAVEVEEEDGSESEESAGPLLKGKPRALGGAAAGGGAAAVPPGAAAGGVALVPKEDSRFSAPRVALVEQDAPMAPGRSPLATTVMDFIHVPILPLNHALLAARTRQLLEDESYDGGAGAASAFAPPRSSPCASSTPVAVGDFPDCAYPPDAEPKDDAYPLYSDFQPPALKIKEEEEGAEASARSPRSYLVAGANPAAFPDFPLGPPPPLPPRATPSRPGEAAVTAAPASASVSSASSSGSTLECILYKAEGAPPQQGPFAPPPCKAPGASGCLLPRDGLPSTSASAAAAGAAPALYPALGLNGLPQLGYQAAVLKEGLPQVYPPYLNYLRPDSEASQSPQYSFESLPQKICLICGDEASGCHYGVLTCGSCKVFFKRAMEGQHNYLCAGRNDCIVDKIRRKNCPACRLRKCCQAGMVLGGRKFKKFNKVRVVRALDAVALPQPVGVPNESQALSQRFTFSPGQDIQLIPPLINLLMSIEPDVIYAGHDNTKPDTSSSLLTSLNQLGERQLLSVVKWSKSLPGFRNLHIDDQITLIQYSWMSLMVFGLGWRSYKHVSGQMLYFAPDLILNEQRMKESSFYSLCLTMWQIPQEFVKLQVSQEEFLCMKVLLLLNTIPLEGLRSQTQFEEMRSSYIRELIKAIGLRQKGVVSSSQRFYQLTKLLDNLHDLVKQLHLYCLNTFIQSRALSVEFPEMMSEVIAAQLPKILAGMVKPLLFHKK
Briefly: T47D cell alkaline phosphatase assay. The note with it: T47D cells; antagonist mode, in the presence of 1 nM progesterone; first TABLE 2; read-out: Alk. Phos. IC50. It is filed as cell-based. Here is the method:
(4) T47D Cell Alkaline Phosphatase Assay
To identify progestins or antiprogestins by determining a compound's effect on alkaline phosphatase activity in T47D cells.
DMEM:F12 (1:1) (GIBCO, BRL) supplemented with 5% (v/v) charcoal stripped fetal bovine serum (not heat-inactivated), 100 U/ml penicillin, […], and 2 mM GlutaMax (GIBCO, BRL).
I. 0.1 M Tris-HCl, pH 9.8, containing 0.2% Triton X-100
II. 0.1 M Tris-HCl, pH 9.8 containing 4 mM p-nitrophenyl phosphate (Sigma).
Frozen T47D cells were thawed in a 37° C. water bath and diluted to 280,000 cells/ml in culture medium. To each well in a 96-well plate (Falcon, Becton Dickinson Labware), 180 μl of diluted cell suspension was added. Twenty μl of reference or test compounds diluted in the culture medium was then added to each well. […] The cells were incubated at 37° C. in a 5% CO2/humidified atmosphere for 24 hr.
Note: For high throughput screening, one concentration of each compound was tested at 0.3 mg/ml. Based on an average molecular weight of 300 g/mol for the compounds in the library, the concentration was approximately 1 mM. […] Alkaline Phosphatase Enzyme Assay: […]
For reference and test compounds, a dose response curve was generated for dose (X-axis) vs. the rate of enzyme reaction (slope) (Y-axis). […] EC50 or IC50 values were calculated from the retransformed values. […]

Regarding `CCC1(c2cccs2)OCC(=O)Nc2ccc(-c3ccc(C#N)n3C)cc21` (centres unmarked) [Compound 19, 5-(5-Ethyl-2-oxo-5-thien-2-yl-1,2,3,5-tetrahydro-4,1-benzoxazepin-7-yl)-1-methyl-1H-pyrrole-2-carbonitrile], in series [1], the IC50 was 14.6 nM.

In turn, `CC1(C)OCC(=O)Nc2ccc(-c3cc(F)cc(C#N)c3)cc21` [Compound 3, 3-(5,5-dimethyl-2-oxo-1,2,3,5-tetrahydro-4,1-benzoxazepin-7-yl)-5-fluorobenzonitrile] returned a melting point of 238 to 239 °C.

Regarding `CCC1(c2cccs2)OCC(=O)Nc2ccc(-c3ccc(F)c(C#N)c3)cc21` (centres unmarked) [Example 139, 5-(5-Ethyl-2-oxo-5-thien-2-yl-1,2,3,5-tetrahydro-4,1-benzoxazepin-7-yl)-2-fluorobenzonitrile], the melting point was 197 to 199 °C.

The compound `CCC1(c2cccs2)OCC(=O)Nc2ccc(-c3csc(C#N)c3)cc21` (centres unmarked) [Example 143, 4-(5-Ethyl-2-oxo-5-thien-2-yl-1,2,3,5-tetrahydro-4,1-benzoxazepin-7-yl)thiophene-2-carbonitrile] displayed a melting point of 202 to 204 °C.

Regarding `Cn1c(C#N)ccc1-c1ccc2c(c1)C(c1cccs1)(c1cccs1)OCC(=O)N2` [Compound 14, 1-Methyl-5-(2-oxo-5,5-dithien-2-yl-1,2,3,5-tetrahydro-4,1-benzoxazepin-7-yl)-1H-pyrrole-2-carbonitrile], the concentration for half-maximal inhibition (IC50) in series [1] is 11.3 nM.

Turning to `CCC1(c2cccs2)OCC(=O)Nc2ccc(-c3coc(C#N)c3)cc21` (centres unmarked) [Example 141, 4-(5-Ethyl-2-oxo-5-thien-2-yl-1,2,3,5-tetrahydro-4,1-benzoxazepin-7-yl)-2-furonitrile], the melting point lay in the range of 99 to 100 °C.

`Cn1c(C#N)ccc1-c1ccc2c(c1)C(C)(c1cccs1)OCC(=O)N2` (centres unmarked) [Compound 6, 1-Methyl-5-[5-methyl-2-oxo-5-(2-thienyl)-1,2,3,5-tetrahydro-4,1-benzoxazepin-7-yl]-1H-pyrrole-2-carbonitrile] had a melting point of 197 to 198 °C.

With `CCC1(c2cccs2)OCC(=O)Nc2ccc(-c3sc(C#N)cc3C)cc21` (centres unmarked) [Example 140, 5-(5-Ethyl-2-oxo-5-thien-2-yl-1,2,3,5-tetrahydro-4,1-benzoxazepin-7-yl)-4-methylthiophene-2-carbonitrile], the melting point lay in the range of 182 to 184 °C.

One may read the IC50 as the concentration needed to halve the response being measured. Broadly, the melting point is the temperature, or range, at which the solid turns liquid.
